Assay results reported in patent US11485728B2, “Small molecules for the treatment of autoimmune diseases and cancer” (Athos Therapeutics, Inc., priority 2020, dated 2022).
Like-named read-outs stand apart in the source and are kept apart here.

Columns and labels:
[1] = system: HT-29 colorectal cancer cells; assay: HT-29 cell viability (Real-Time-Glo); format: cell-based; settings: for growth of HT-29 colorectal cancer cells: luminescence at 72 h; for IC50: Homo sapiens, HT-29, 72 hr, read-out: IC50, Cell line: HT-29
Description: Equal volume of 2× RealTime-Glo™ reagent (2 μl of MT Cell Viability Substrate 1,000×, and 2 μl of NanoLuc® Enzyme 1,000×, per 1 ml of media, Promega) was added to each well and cells were incubated at 37° C. Luminescence was evaluated at 72 h.
(§1) To determine the plating density for cell viability assays, for each cell line, cells were counted and diluted to final densities of 2.5, 5, 10 and 20 thousand per 100 μl of their respective growth media per well in 96 well plates. A Promega Real-Time-Glo cell viability kit was used to determine the optimal concentration for cell plating so that each cell line would be within the linear part of its growth curve after 72 hrs in culture. […] Test compounds were then added at different concentrations for the creation of six-point curve and cell density was determined using the Promega Real-Time-Glo cell viability kit after 24, 48, and 72 hrs in culture.
Specifically, the Promega Real-Time-Glo cell viability kit was used to determine the optimal concentration for cell plating so that each cell line would be within the linear part of its growth curve after 72 hrs in culture. […] Test compounds are then added at different concentrations for the creation of six-point curve and cell density is determined using the Promega Real-Time-Glo cell viability kit after 24, 48, and 72 hrs in culture. […]

pH solubility = format: physicochemical; settings: for solubility at 24 h: aqueous solution, thermodynamic from solid, read-out: Solubility Concentration; for solubility higher than the solubility of compound 201: pH 7.4
Description: Saturated solutions of selected compounds were prepared at pH 1, 4, 6.5, and 7.4. The pH conditions selected are within the extremes of the normal physiological pH of the human gastrointestinal tract. Solubility testing of drug under different pH conditions was carried out by adding an excess amount of drug to each pH condition initiating with 1 mg/mL and then confirmed saturation by visual observation of undissolved material. The saturated solutions are continuously shaking at 6,000 rpm for 24 hours at room temperature. The saturated solutions were filtered through Millipore 0.22 um PVDF hydrophilic filters and subjected to HPLC to evaluate the solubility concentration of the test compound. Filtered saturated solutions were diluted with acetonitrile:water (50:50) within the calibration standard curve. A calibration curve of test compound contained […] standards at concentrations 0.25, 0.5, 1.0, 5.0, 10, 25, 50 and 100 μg/mL were prepared in acetonitrile:water (50:50).
Compounds were measured in filtered saturated solution using an Agilent 1260 Infinity II Lab LC Series HPLC (1260 quat pump, 1260 vial autosampler, ICC column oven, 1260 DAD WR detector). The chromatographic separation was achieved by Phenomenex Synergi Polar RP column (150×4.6 mm, 4 μm, 80 Å). The mobile phase was gradient (A: water with 0.1% trifluoroacetic acid, B: acetonitrile with 0.1% trifluoroacetic acid; A/B (99:1) from 0 minute; to A/B (1:99) from 0 to 10 minutes; A/B (1:99) from 10 to 12 minutes; to A/B (99:1) from 12 to 12.1 minutes; A/B (99:1) from 12.1 to 13 minutes) pumped at a flow rate of 1 mL/min. The detection of the eluent was monitored at 254 nm. The column oven was set at 35° C. Injection volume was 10 μL, unless otherwise specified. Data acquisition and peak integrations were obtained by OpenLAB CDS Version 2.4 (Agilent) operating with Windows (Microsoft).
Solubility is the ability of a drug to dissolve in an aqueous solution under different pH conditions. It is defined as the amount of substance that passes into solution to achieve a saturated solution at a constant temperature and pressure. The purpose of this study was to determine the solubility of selected compounds under different pH conditions and determine whether an oral solution is feasible or a suspension would be better to support the drug formulation process for pre-clinical studies. The pH conditions selected were within the extremes of the normal physiological pH of the human gastrointestinal tract, such as pH 1, pH 4, pH 6.5, and pH 7.4.

[2] = system: CaCo-2 intestinal epithelial cells; assay: Transepithelial resistance (TEER) of CaCo-2 cells exposed to TNFα and IFNγ; format: cell-based; settings: for epithelial barrier resistance: TNFα 10 ng/ml, IFNγ 100 ng/ml, compounds 1 μM, 48 hrs of treatment; for transepithelial resistance after combined TNFα and IFNγ exposure: TNFα 20 ng/ml, IFNγ 200 ng/ml, 24 hrs of treatment
Description: The intestinal epithelial barrier plays a central role in the pathophysiology of multiple chronic inflammatory and autoimmune diseases. Intestinal epithelial cells provide a physical barrier that interacts with immune cells and protects internal cavities from mucosal bacterial and antigen intrusion. Intestinal inflammation during IBD is associated with disruption of this barrier and cytokines like TNFα play important roles.
At confluence TEER is measured and TNFα along with compounds are added as described above. Compound-induced TEER is determined after correction with measurement prior to treatment.

5637 = 5637 bladder cancer cell viability (Real-Time-Glo); format: cell-based; settings: 72 hr; read-out: IC50, Cell line: 5637
Description: To determine the plating density for cell viability assays, for each cell line, cells were counted and diluted to final densities of 2.5, 5, 10 and 20 thousand per 100 μl of their respective growth media per well in 96 well plates. A Promega Real-Time-Glo cell viability kit was used to determine the optimal concentration for cell plating so that each cell line would be within the linear part of its growth curve after 72 hrs in culture. For the determination of test compound IC50s different cancer cell lines were plated in 96 well plates in the pre-determined optimal density for each cell line. Test compounds were then added at different concentrations for the creation of six-point curve and cell density was determined using the Promega Real-Time-Glo cell viability kit after 24, 48, and 72 hrs in culture. Test compound 72 hr IC50s were calculated using the AAT Bioquest IC50 calculator.
The following compounds are evaluated for their ability to block cancer cell growth in colon (HT-29), liver (HepG2), pancreatic (MiaPaca-2) and bladder (5637) cancer cell lines. Specifically, the Promega Real-Time-Glo cell viability kit was used to determine the optimal concentration for cell plating so that each cell line would be within the linear part of its growth curve after 72 hrs in culture. For the determination of test compound IC50s different cancer cell lines are plated in 96 well plates in the pre-determined optimal density for each cell line. Test compounds are then added at different concentrations for the creation of six-point curve and cell density is determined using the Promega Real-Time-Glo cell viability kit after 24, 48, and 72 hrs in culture. Test compound 72 hr IC50s is calculated using the AAT Bioquest IC50 calculator.

HCT-116 = HCT-116 cell viability (Real-Time-Glo); format: cell-based; settings: Homo sapiens, 72 hr, read-out: IC50, Cell line: HCT-116
Description: as §1

[3] = CaCo-2, TNFα along with compounds

Structure (SMILES) | growth of HT-29 colorectal cancer cells [1] | solubility at 24 h (pH solubility; pH 6.5, aqueous buffer) | solubility at 24 h (pH solubility; pH 7.4, aqueous buffer) | epithelial barrier resistance [2] | IC50 [1] | IC50 5637 | IC50 (HCT-116) | also measured
COc1cc2c(NC3CCS(=O)(=O)CC3)nc(N3CCC(F)(F)CC3)nc2cc1OCCCN1CCCC1 [Compound 1, 4-((2-(4,4-difluoropiperidin-1-yl)-6-methoxy-7-(3-(pyrrolidin-1-yl)propoxy)quinazolin-4-yl)amino)tetrahydro-2H-thiopyran 1,1-dioxide] | potent anti-cancer activity | 6050 µg/mL | 424 µg/mL | recovered epithelial barrier resistance levels back to those of untreated cells |  |  |  | solubility at 24 h (pH solubility; pH 4, aqueous buffer): 11600 µg/mL; solubility higher than the solubility of compound 201 (pH solubility): 40 fold; transepithelial resistance after combined TNFα and IFNγ exposure [2]: ameliorated the disruptive effects; TEER ([2]; vs control group): +
COc1cc2c(NC3CCOCC3)nc(N3CCC(F)(F)CC3)nc2cc1OCCCN1CCCC1 [Compound 2, 2-(4,4-difluoropiperidin-1-yl)-6-methoxy-7-(3-(pyrrolidin-1-yl)propoxy)-N-(tetrahydro-2H-pyran-4-yl)quinazolin-4-amine] | potent anti-cancer activity | 27500 µg/mL | 449 µg/mL | recovered epithelial barrier resistance levels back to those of untreated cells | 1 to 5 µM | 10 to 20 µM |  | solubility higher than the solubility of compound 201 (pH solubility): 40 fold; transepithelial resistance after combined TNFα and IFNγ exposure [2]: ameliorated the disruptive effects; TEER ([2]; vs control group): +
COCCN1CCC(Nc2nc(N3CCC(F)(F)CC3)nc3cc(OCCCN4CCCC4)c(OC)cc23)CC1 [Compound 3, 2-(4,4-difluoropiperidin-1-yl)-6-methoxy-N-(1-(2-methoxyethyl)piperidin-4-yl)-7-(3-(pyrrolidin-1-yl)propoxy)quinazolin-4-amine] | potent anti-cancer activity |  |  |  |  | 5 to 10 µM | 1 to 5 µM | 
COCCNc1nc(N2CCC(F)(F)CC2)nc2cc(OCCCN3CCCC3)c(OC)cc12 [Compound 4, 2-(4,4-difluoropiperidin-1-yl)-6-methoxy-N-(2-methoxyethyl)-7-(3-(pyrrolidin-1-yl)propoxy)quinazolin-4-amine] | potent anti-cancer activity |  |  |  | 1 to 5 µM | 10 to 20 µM | 1 to 5 µM | 
COc1cc2c(Nc3ccncc3)nc(N3CCC(F)(F)CC3)nc2cc1OCCCN1CCCC1 [Compound 7, 2-(4,4-difluoropiperidin-1-yl)-6-methoxy-N-(pyridin-4-yl)-7-(3-(pyrrolidin-1-yl)propoxy)quinazolin-4-amine] |  |  |  | recovered epithelial barrier resistance levels back to those of untreated cells | 1 to 5 µM | 1 to 5 µM | 1 to 5 µM | TEER [2, 3]: −
COc1cc2c(NC3COC3)nc(N3CCC(F)(F)CC3)nc2cc1OCCCN1CCCC1 [Compound 11, 2-(4,4-difluoropiperidin-1-yl)-6-methoxy-N-(oxetan-3-yl)-7-(3-(pyrrolidin-1-yl)propoxy)quinazolin-4-amine] |  | 3180 µg/mL | 245 µg/mL |  |  |  |  | solubility at 24 h (pH solubility; pH 4, aqueous buffer): 4450 µg/mL
COc1cc2c(NC3CCN(C(C)C)CC3)nc(-n3ccnc3)nc2cc1OCCCN1CCCC1 [Compound 156, 2-(1H-imidazol-1-yl)-N-(1-isopropylpiperidin-4-yl)-6-methoxy-7-(3-(pyrrolidin-1-yl)propoxy)quinazolin-4-amine] |  |  |  |  | 1 to 5 µM | 1 to 5 µM | 1 to 5 µM | 
COc1cc2c(NC3CCOCC3)nc(N3CCCC3)nc2cc1OCCCN1CCCC1 [Compound 164, 6-methoxy-2-(pyrrolidin-1-yl)-7-(3-(pyrrolidin-1-yl)propoxy)-N-(tetrahydro-2H-pyran-4-yl)quinazolin-4-amine] |  |  |  |  |  | 5 to 10 µM | 1 to 5 µM | TEER [2, 3]: ++
COc1cc2c(NC3CCOCC3)nc(N3CCC3)nc2cc1OCCCN1CCCC1 [Compound 174, 2-(azetidin-1-yl)-6-methoxy-7-(3-(pyrrolidin-1-yl)propoxy)-N-(tetrahydro-2H-pyran-4-yl)quinazolin-4-amine] |  |  |  |  |  | 10 to 20 µM | 1 to 5 µM | 
COc1cc2c(NC3CCN(C(C)C)CC3)nc(N3CCC3)nc2cc1OCCCN1CCCC1 [Compound 234, 2-(azetidin-1-yl)-N-(1-isopropylpiperidin-4-yl)-6-methoxy-7-(3-(pyrrolidin-1-yl)propoxy)quinazolin-4-amine] |  |  |  |  |  | 5 to 10 µM | 1 to 5 µM | 
COc1cc2c(NC3CCN(C(C)C)CC3)nc(C#N)nc2cc1OCCCN1CCCC1 [Compound 235, 4-((1-isopropylpiperidin-4-yl)amino)-6-methoxy-7-(3-(pyrrolidin-1-yl)propoxy)quinazoline-2-carbonitrile] |  |  |  |  |  | 5 to 10 µM | 1 to 5 µM | 
COc1cc2c(NC3CCN(C(C)C)CC3)nc(N3CCC(F)(F)CC3)nc2cc1OCCCN1CCCC1 [Compound 400, 2-(4,4-difluoropiperidin-1-yl)-N-(1-isopropylpiperidin-4-yl)-6-methoxy-7-(3-(pyrrolidin-1-yl)propoxy)quinazolin-4-amine, reference compound] |  | 7510 µg/mL | 11 µg/mL | increased intestinal permeability | 5 to 10 µM |  |  | solubility at 24 h (pH solubility; pH 1, simulated gastric fluid): 22800 µg/mL; solubility at 24 h (pH solubility; pH 4, aqueous buffer): 13200 µg/mL; TEER ([2]; vs control group): −
